Experimental data from ChEMBL document CHEMBL1201862, “PubChem BioAssay data set” (2004).
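Method: 48-hour compound exposure of cells in 96-well plates, five concentrations, linear interpolation of endpoints. At the GI50, growth is halved.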 Activity calls are given as the source filed them. Cut-off read from the data, not from the text of the source: active = GI50 up to about 1.1 µM and inactive = higher.

Tests used:
Assay in all cases: NCI tumour cell line growth inhibition, 48 h
[1] = test system: SF-268
[2] = test system: MDA-MB-435
[3] = test system: HT-29
[4] = test system: UACC-257
[5] = test system: SN12C
[6] = test system: SF-539
[7] = test system: OVCAR-8
[8] = test system: COLO 205
[9] = test system: U-251
[10] = test system: PC-3
[11] = test system: SK-MEL-28
[12] = test system: NCI-H460
[13] = test system: IGROV-1
[14] = test system: UO-31
[15] = test system: Malme-3M
[16] = test system: LOX IMVI
[17] = test system: SW-620
[18] = test system: TK-10
[19] = test system: HCC 2998
[20] = test system: OVCAR-5

Row | SMILES | GI50 [1] | GI50 [2] | GI50 [3] | GI50 [4] | GI50 [5] | GI50 [6] | GI50 [7] | GI50 [8] | GI50 [9] | GI50 [10] | GI50 [11] | GI50 [12] | GI50 [13] | GI50 [14] | GI50 [15] | GI50 [16] | GI50 [17] | GI50 [18] | GI50 [19] | GI50 [20]
1 | CC(=O)c1nc2ccccc2n1CC(=O)c1ccc(Cl)cc1 | 3.94 µM (inactive) | 2.09 µM (inactive) | 12.1 µM (inactive) | 5.68 µM (inactive) | 5.69 µM (inactive) | 7.36 µM (inactive) | 2.4 µM (inactive) | 20.9 µM (inactive) | 2.99 µM (inactive) | 5.45 µM (inactive) | 8.83 µM (inactive) | 2.45 µM (inactive) | 1.39 µM (inactive) | 9.25 µM (inactive) | 3.19 µM (inactive) | 0.925 µM (active) | 2.67 µM (inactive) | 61.2 µM (inactive) | – | –
2 | O=C1CCc2cc3c(cc21)C(C(=O)O)CC3 (stereo not drawn) | > 100 µM (inactive) | – | > 100 µM (inactive) | > 100 µM (inactive) | > 100 µM (inactive) | > 100 µM (inactive) | > 100 µM (inactive) | > 100 µM (inactive) | > 100 µM (inactive) | > 100 µM (inactive) | > 100 µM (inactive) | > 100 µM (inactive) | > 100 µM (inactive) | > 100 µM (inactive) | > 100 µM (inactive) | > 100 µM (inactive) | > 100 µM (inactive) | > 100 µM (inactive) | > 100 µM (inactive) | > 100 µM (inactive)
3 | Cc1ccc(-c2nc(Cc3n[nH]c(-c4ccc(C)cc4)n3)n[nH]2)cc1 | 6.14 µM (inactive) | > 100 µM (inactive) | > 100 µM (inactive) | > 100 µM (inactive) | > 100 µM (inactive) | > 100 µM (inactive) | 10.3 µM (inactive) | > 100 µM (inactive) | 3.71 µM (inactive) | > 100 µM (inactive) | > 100 µM (inactive) | – | > 100 µM (inactive) | > 100 µM (inactive) | – | > 100 µM (inactive) | > 100 µM (inactive) | > 100 µM (inactive) | > 100 µM (inactive) | > 100 µM (inactive)
4 | O=C1c2ccccc2C(=O)N1CCc1nc(-c2ccccc2)c[nH]1 | > 100 µM (inactive) | – | > 100 µM (inactive) | > 100 µM (inactive) | > 100 µM (inactive) | > 100 µM (inactive) | > 100 µM (inactive) | > 100 µM (inactive) | > 100 µM (inactive) | > 100 µM (inactive) | > 100 µM (inactive) | > 100 µM (inactive) | > 100 µM (inactive) | > 100 µM (inactive) | 24.8 µM (inactive) | – | > 100 µM (inactive) | > 100 µM (inactive) | > 100 µM (inactive) | > 100 µM (inactive)
5 | COc1ccc(/C=C2\OC(=O)C(Cl)=C2c2ccc(OC)cc2)cc1 | 40.4 µM (inactive) | > 100 µM (inactive) | > 100 µM (inactive) | > 100 µM (inactive) | > 100 µM (inactive) | > 100 µM (inactive) | 85.7 µM (inactive) | > 100 µM (inactive) | 89.3 µM (inactive) | 63 µM (inactive) | > 100 µM (inactive) | > 100 µM (inactive) | > 100 µM (inactive) | > 100 µM (inactive) | > 100 µM (inactive) | > 100 µM (inactive) | > 100 µM (inactive) | 84.5 µM (inactive) | – | –
6 | CN1CCc2c(sc3ncn(C)c(=N)c23)C1 | > 100 µM (inactive) | > 100 µM (inactive) | > 100 µM (inactive) | > 100 µM (inactive) | > 100 µM (inactive) | > 100 µM (inactive) | > 100 µM (inactive) | > 100 µM (inactive) | > 100 µM (inactive) | > 100 µM (inactive) | > 100 µM (inactive) | > 100 µM (inactive) | > 100 µM (inactive) | – | > 100 µM (inactive) | > 100 µM (inactive) | > 100 µM (inactive) | > 100 µM (inactive) | – | > 100 µM (inactive)
7 | CC(=O)N(C)CCc1c[nH]c2ccccc12 | > 100 µM (inactive) | > 100 µM (inactive) | > 100 µM (inactive) | > 100 µM (inactive) | > 100 µM (inactive) | > 100 µM (inactive) | > 100 µM (inactive) | > 100 µM (inactive) | > 100 µM (inactive) | > 100 µM (inactive) | > 100 µM (inactive) | > 100 µM (inactive) | > 100 µM (inactive) | > 100 µM (inactive) | > 100 µM (inactive) | > 100 µM (inactive) | > 100 µM (inactive) | > 100 µM (inactive) | – | > 100 µM (inactive)
